Experimental findings from patent US9303069B2, “Peptides for treating cancer” (University of Mississippi Medical Center, priority 2014, dated 2016) are described below.

Structures are written as SMILES. pIC50: −log10 of the molar value. Some results are limits rather than exact numbers.

For assay [1], the system named is HME/IRIS cells. The experiment in a line: cells. The settings on record: Homo sapiens, read-out: IC50 of paclitaxel (viability).
Assay [2] has as its system MDA-MB-468 tumors. In words: In vivo efficacy on established MDA-MB-468 tumors. Set-up: species or system mice. The settings on record: 12 days; paclitaxel 10 mg/kg i.p., every third day, four injections. The procedure:
Nude 6-8 weeks female mice were injected with 2×10^6 of MDA-MB-468 cells in the 2nd left and 4th right mammary fat pads. When all tumors reached ˜0.1 cm^3 in volume, mice were divided into four groups, one received vehicles (i.e. DMSO injected intraperitoneally [i.p.] and scrambled peptide injected directly into tumors [i.t.]), another received paclitaxel (10 mg/kg, i.p.), the third received IRIS peptide at (10 mg/kg, i.t.), and the last received paclitaxel and IRIS peptide at half the concentrations, injected as above. Drugs were delivered every third day for total of four injections.
In Vivo efficacy of BRCA1-IRIS-inhibitory peptide. Six to eight week old female athymic SCID mice were injected in the second right and the fourth left mammary gland with 2.5×10^6 of MDAMB468 cells. Tumor growth was followed daily until tumors reached 100 mm^3. At this time mice were randomly grouped into four different groups that were injected: a) with DMSO (i.p.) and scrambled peptide (10 mg/kg) intra-tumoral (i.t.), b) injected with IRIS peptide (10 mg/kg, i.t.), c) injected with paclitaxel (10 mg/kg, i.p.), d) injected with IRIS peptide (5 mg/kg, i.t.), and paclitaxel (5 mg/kg, i.p.). […] Change in tumor volume was measured to monitor the efficacy of the treatments using caliper and is represented as percentage of volume at day 0 of treatment. […]

Assay [3] concerns MDA-MB-468 cells. In words: cells. The conditions noted are these: Homo sapiens, MDA-MB-468, read-out: IC50 of paclitaxel (viability).
Procedure: (§2) All cell lines were exposed to increasing concentrations of paclitaxel and BRCA1-IRIS expression, and cells' viability was then measured.
(§3) Stable clones were then exposed to 0, 10 or 20 μM of EGFR (Erlotinib), ErbB2 (CP-724714), PI3′K/AKT (LY294002), p38 (SB203580), ERK (PD98059) or JNK (SP600125) inhibitors for 24 hours.
Assay [4] concerns MDA-MB-231 cells. In words: cells. The settings on record: Homo sapiens, MDA-MB-231, read-out: IC50 of paclitaxel (viability).
Procedure: as §2, §3
For assay [5], the system named is BRCA1-IRIS. In words: BRCA1-IRIS expression in breast cells (Western). The class given is cell-based, human. The procedure:
HME and HME/IRIS cells were treated with 10, 20 and 50 μM of paclitaxel for 24 hours. Compared to HME/IRIS cells, untreated HME cells express very low level of BRCA1-IRIS (FIG. 68, left). […] Both EGF and NRG1, which were secreted at higher levels from untreated HME/IRIS cells, remained high after paclitaxel (until ˜50 μM, FIG. 68, left), whereas in HME cells, both were induced by low paclitaxel treatment (FIG. 68, left). Consistently, in HME/IRIS cells EGFR was phosphorylated on Y1173 (activated by EGF when EGFR is in complex with ErbB2) and ErbB2 on Y1248 (activated by NRG1 when ErbB2 is in complex with ErbB3) remained the same after paclitaxel treatment (until ˜50 μM, FIG. 68, left). Phosphorylated EGFR-Y1173 and ErbB2-Y1248 was only observed in paclitaxel treated HME cells, especially at low concentration (FIG. 68, left).
Survived/paclitaxel-resistant cells were then propagated in the absence of paclitaxel and analyzed. Again, the intrinsically high level of BRCA1-IRIS was not affected by paclitaxel in HME/IRIS cells (FIG. 69, left). […] The expressions of EGFR, ErbB2 and ErbB3 were high in HME/IRIS and HME cells (FIG. 69, left). Despite an intrinsic increase in HME/IRIS and paclitaxel-acquired increase in HME cells in AKT activation, FOXO inactivation/degradation and thus activation increase in CyclinD1, survivin, Bcl-2, Bcl-xL and NF-κB was observed (FIG. 69, right).
To test that hypothesis, an intron 11 peptide (right in FIG. 26) fused to a cell/nucleus penetrating signal at its N-terminus (left in FIG. 26) was synthesized (hereafter IRIS peptide). First, to assess the effect of this IRIS peptide, equal numbers of HME, HME/IRIS, MDA-MB-231, MDA-MB-468 and BT549 cells were exposed to increasing concentrations of scrambled or IRIS peptide for 48 hours. […] It is possible that preventing BRCA1-IRIS-X complex formation destabilizes BRCA1-IRIS and perhaps leads to its degradation.
(§1) To investigate whether inactivating BRCA1-IRIS could sensitize TNBC to paclitaxel-induced cell death, HME cells were exposed to 0.5 μM, while HME/IRIS, MDA-MB-231, MDA-MB-468 and BT549 cells were exposed to 5 μM of IRIS peptide alone or with 5, 10 or 20 μM of paclitaxel for 24 hours. […] Again, IRIS peptide alone at these concentrations led to 50% reduction in survival of all cell lines. […] Indeed, in the presence of IRIS peptide >60%, >70% and >90% reduction in the survival of all cell lines in the presence of 5, 10 and 20 μM of paclitaxel, respectively (FIG. 84).
To relate the effect of IRIS peptide on cell survival to the effect of BRCA1-IRIS on AKT and ERK survival pathways, MDA-MB-231 and MDA-MB-468 were treated with vehicle, 5 μM of IRIS peptide, 10 μM LY294002, 10 μM PD98059 for 24 hours or were transfected with BRCA1-IRIS siRNA for 72 hours.

Assay [6] has as its system BRCA1-IRIS and survivin. In words: IHC of MDA-MB-468 tumors for BRCA1-IRIS and survivin. The conditions noted are these: MDA-MB-468 tumors after treatment. The assay is classed as in vivo, mice. An excerpt:
To study that on the molecular level, sections from these tumors were stained with H&E or for BRCA1-IRIS or survivin using immunohistochemistry. […] Accordingly, it is proposed that inactivating BRCA1-IRIS in TNBC patients might sensitize to lower paclitaxel concentrations to avoid the adverse side effects and also to prevent the recurrence of these tumors at a later point.
Immunohistochemistry (IHC). Breast tissue microarrays comprised of normal, DCIS, invasive and metastatic were purchased from US Biomax, Inc. Paraffin embedded tissue sections were de-waxed in xylene and rehydrated in alcohol. Antigen-retrieval: for FOXO3a and survivin was by heating the slides in citrate buffer (10 μM, pH 6.0) using microwave (Power level 4) for 10 minutes, for BRCA1-IRIS by incubating slides in pepsin (10 μM) for 20 min at 37° C. Endogenous peroxidase activity was suppressed by treating the slides with 3% H2O2 for 10 min. Slides were then incubated for 1 hour at room temperature with antibodies to human FOXO3a or survivin (Cell Signaling Technology, USA 1:400), or overnight at 4° C. with monoclonal anti-human BRCA1-IRIS (1:75). Vectastain Elite ABC Kit was used to develop the staining using horseradish peroxidase labeled secondary antibodies (1 hour at room temperature).

In assay [7] the test system is HME cells. In words: cells. The conditions noted are these: Homo sapiens, read-out: IC50 of paclitaxel (viability).
Procedure: as §2
(§4) Cell viability measurement. Cell viability under different experimental conditions was determined using the MTS assay. Briefly, cells (2.5×10^4 cells per well) were seeded in 96-well plates and incubated overnight at 37° C. in 10% humidified CO2 atmosphere. The next day they were incubated with varying concentration of peptide, or inhibitors for 24 hours at 37° C. Cell viability was determined using cell Titer 96® Aqueous (Promega, Madison, Wis., USA) following manufacturer's instructions. Cell viability (%) was expressed as a ratio of treated cells to control cells×100. […] Each experiment was done in triplicate, repeated three separate times.
The test system of assay [8] is HME, HME/IRIS, MDA-MB-231, MDA-MB-468 and BT549 cells. The experiment in a line: Survival of breast cell lines with IRIS peptide, paclitaxel or both. The conditions noted are these: all cell lines, 24 hours. The class given is cell-based, human. The procedure: as §1
Cell viability measurement. Cell viability under different experimental conditions was determined using the MTS assay. Briefly, cells (2.5×10^4 cells per well) were seeded in 96-well plates and incubated overnight at 37° C. in 10% humidified CO2 atmosphere. The next day they were incubated with varying concentration of peptide, or inhibitors for 24 hours at 37° C. Cell viability was determined using cell Titer 96® Aqueous (Promega, Madison, Wis., USA) following manufacturer's instructions. Cell viability (%) was expressed as a ratio of treated cells to control cells×100. Growth inhibition was also determined by manually counting cells in five different microscopic fields. Change in cell numbers (fold) was expressed as a ratio of the means of these recording of treated cells compared to control cells×100. Each experiment was done in triplicate, repeated three separate times.

For assay [9], the system named is BT549 cells. The experiment in a line: cells. The conditions noted are these: Homo sapiens, BT-549, read-out: IC50 of paclitaxel (viability).
Procedure: as §2, §4

Usually pIC50 stands for −log10 of the IC50, conventionally taken in molar units. Consider `CC(=O)O[C@H]1C(=O)[C@@]2(C)[C@H]([C@H](OC(=O)c3ccccc3)[C@]3(O)C[C@H](OC(=O)[C@H](O)[C@@H](NC(=O)c4ccccc4)c4ccccc4)C(C)=C1C3(C)C)[C@]1(OC(C)=O)CO[C@@H]1C[C@@H]2O` [paclitaxel], for which the pIC50 in assay [1] was around 4.30; in assay [3], above 4.70; in [4], below 4.30; in assay [7], around 5.30; in assay [9], around 4.46. In addition, the “tumor size relative to control tumors” value in assay [2] is on record as “half the size of the control tumors”. Further, the “BRCA1-IRIS expression in HME cells” value in assay [5] (1 μM of paclitaxel for 1 or 3 weeks) is recorded as “acquired-induction in BRCA1-IRIS expression was detected”; in assay [5] (10 and 20 μM paclitaxel, 24 hours) it was “significantly upregulated BRCA1-IRIS expression”. Besides, in [5] (paclitaxel 24 hours, until ~50 μM), the “BRCA1-IRIS expression in HME/IRIS cells” value is recorded as “did not alter the expression of BRCA1-IRIS”. The “BRCA1-IRIS and survivin expression in tumors (IHC)” value in assay [6] is “significantly increase BRCA1-IRIS and survivin expression”. Moreover, the reduction in survival in assay [8] (paclitaxel alone at 5 μM) is on record as around 50%; in [8] (paclitaxel alone at 10 μM) it was around 60%; in [8] (paclitaxel alone at 20 μM), around 70%.
